Laboratory results as given in US6734212B2, “Methods and compositions for treating or preventing bacterial infection” (Shanghai East Best Biopharmaceutical, priority 2001, dated 2004).
Where two headings read alike, the source gives them in different places.

How the values were obtained:
[1] = tested on: H. pylori; experiment: MIC against 9 strains of H. pylori; type: cell-based; details: 9 ATCC strains of H. pylori
Method: MICs (μg/ml) of several substances against 9 strains (ATCC43504, ATCC43629, ATCC43526,ATCC43579,ATCC49503,ATCC51110,ATCC51652,ATCC51653, ATCC51932) of H. pylori were examined. NE-2001 had minimal inhibitory concentrations (MICs) ranging from 0.10 to 0.48 μg/ml.

[2] = tested on: B. subtilis; experiment: Effects of aromatic esters of GMCHA on growth of B. subtilis; type: cell-based; details: for IC50: Bacillus subtilis
[3] = tested on: E. coli; experiment: Effects of GMCHA derivatives on E. coli growth; type: cell-based; details: for IC50: Escherichia coli; for E. coli IC91 / E. coli IC100: growth, Table 2
[4] = biological target: T1, E. coli Proteinase In (Escherichia coli, UniProt P27298); experiment: Inhibition of purified E. coli proteinase In (fluorogenic substrate Boc-Val-Pro-Arg-NH-Mec); type: biochemical
T1 construct: We detected a single activity and had purified it to homogeneity; made in house; host or cells: endogenous enzyme purified from E. coli extracts (not recombinant)
From the text: Since the GMCHA derivatives were originally identified as synthetic trypsin inhibitors in vitro, we investigated whether a trypsin-like protease could be detected in E. coli extracts using as fluorogenic substrate Boc-Val-Pro-Arg-NH-Mec. (Kato et al., Eur. J. Biochem., 210:1007-1014 (1992)). We detected a single activity and had purified it to homogeneity. […] The purified enzyme has a molecular mass of ˜66 kDa and an isoelectric point of 4.9. Based upon pH optimum, hydrolytic activity on various synthetic substrates, and effects of various known proteolytic inhibitors, this E. coli protease has very different specificity than mammalian trypsin or any of known bacterial enzymes. Most exciting is the finding that the sensitivity of the purified enzyme to various GMCHA derivatives paralleled exactly their inhibitory effects on E. coli (Table 1). […] (Kato et al., Biol.Pharm. Bull., 16:552-557 (1993)). […]. […] We named this enzyme proteinase In, and its gene was identical with prlC. The prlC gene encoded a 67 kDa protein with two active sites for proteinase In and oligopeptidase A. (Jiang et al., J. Biochem., 124:980-985 (1998)). […] (Irisawa et al., Biol. Pharm. Bull., 16:1211-1215 (1993)).

[5] = tested on: S. aureus; experiment: Effects of aromatic esters of GMCHA on growth of S. aureus; type: cell-based; details: for IC20: Staphylococcus aureus, read-out: S. aureus IC20; for S. aureus IC100: growth
[6] = tested on: S. epidermidis; experiment: Effects of aromatic esters of GMCHA on growth of S. epidermidis; type: cell-based
[7] = Single dose toxicity in mice; type: in vivo
[8] = tested on: H. pylori; experiment: Bactericidal effect against H. pylori (time course, various concentrations and pH); type: cell-based; details: concentration ≧1.25 μg/ml
Method: FIG. 2 illustrates the anti-H. pylori effects of the compound NE-2001. Bactericidal effect was examined at various concentration (0.15-2.50 μg/ml) for 168 hours. […] No visible organism was detected in 3 hr at a concentration of ≧1.25 μg/ml.

[9] = tested on: H. pylori ATCC43504; experiment: Appearance frequency of natural resistant mutation; type: cell-based
From the text: FIG. 3. Illustrates the anti-H. pylori effects of the compound NE-2001 at various pH values. The appearance frequency of natural resistant mutations against NE-2001 was examined (Table 4).

[10] = tested on: synchronized E. coli cells; type: cell-based
[11] = read-out: E. coli Proteinase In IC50

T1 sequence (P27298 whole entry): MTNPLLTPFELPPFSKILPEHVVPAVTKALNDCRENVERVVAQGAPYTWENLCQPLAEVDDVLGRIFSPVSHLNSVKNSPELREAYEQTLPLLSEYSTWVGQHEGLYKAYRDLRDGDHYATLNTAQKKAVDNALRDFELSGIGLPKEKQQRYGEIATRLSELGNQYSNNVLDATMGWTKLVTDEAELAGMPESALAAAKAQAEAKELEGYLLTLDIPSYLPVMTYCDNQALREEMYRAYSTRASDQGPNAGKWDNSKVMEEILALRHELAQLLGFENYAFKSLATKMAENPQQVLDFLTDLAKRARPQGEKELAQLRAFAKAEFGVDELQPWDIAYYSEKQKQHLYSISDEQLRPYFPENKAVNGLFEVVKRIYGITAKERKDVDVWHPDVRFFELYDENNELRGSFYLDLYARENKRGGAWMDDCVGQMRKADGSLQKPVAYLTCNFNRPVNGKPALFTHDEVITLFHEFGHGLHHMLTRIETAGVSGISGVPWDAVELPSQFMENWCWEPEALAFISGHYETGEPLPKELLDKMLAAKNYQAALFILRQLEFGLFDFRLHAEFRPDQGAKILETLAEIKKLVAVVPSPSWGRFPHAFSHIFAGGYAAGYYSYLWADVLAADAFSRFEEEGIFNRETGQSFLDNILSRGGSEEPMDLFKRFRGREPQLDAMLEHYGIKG

MIC Range [1] [µg/mL]	SMILES	B. subtilis IC100 [2] [µM]	IC50 [2] [µM]	IC50 [3] [µM]	E. coli IC91 [3]	E. coli IC100 [3] [µM]	IC50 [4] [µM]	IC20 [5] [µM]	S. aureus IC100 [5] [µM]	S. epidermidis IC91 [6]	S. epidermidis IC100 [6] [µM]	also measured
0.01 to 0.08	CC1(C)S[C@@H]2[C@H](NC(=O)[C@H](N)c3ccc(O)cc3)C(=O)N2[C@H]1C(=O)O [Amoxicillin]	–	–	–	–	–	–	–	–	–	–	–
–	N=C(N)NCC1CCC(C(=O)Oc2ccc(-c3ccccc3)cc2)CC1 (centres unmarked) [BP01]	10	4	26	26	40	17	0.6	2	0.4	1.5	–
–	N=C(N)NCC1CCC(C(=O)Oc2ccccc2-c2ccccc2)CC1 (centres unmarked) [BP02]	–	–	74	–	–	83	–	–	–	–	–
0.01 to 0.90	CC[C@H]1OC(=O)[C@H](C)[C@@H](O[C@H]2C[C@@](C)(OC)[C@@H](O)[C@H](C)O2)[C@H](C)[C@@H](O[C@@H]2O[C@H](C)C[C@H](N(C)C)[C@H]2O)[C@](C)(OC)C[C@@H](C)C(=O)[C@H](C)[C@@H](O)[C@]1(C)O [Clarithromycin]	–	–	–	–	–	–	–	–	–	–	–
0.65 to 2.45	Cc1ncc([N+](=O)[O-])n1CCO [Metronidazole]	–	–	–	–	–	–	–	–	–	–	–
–	N=C(N)NCC1CCC(C(=O)Oc2ccccc2)CC1 (centres unmarked) [PH01]	> 200	> 200	> 200	>200	> 200	–	151	> 200	128	> 200	IC50 [4, 11]: > 200 µM
–	Cc1ccc(OC(=O)C2CCC(CNC(=N)N)CC2)cc1 (centres unmarked) [PH02]	> 200	> 200	> 200	>200	> 200	–	47	120	48	120	IC50 [4, 11]: > 200 µM
–	CCc1ccc(OC(=O)C2CCC(CNC(=N)N)CC2)cc1 (centres unmarked) [PH03]	> 200	129	167	167	> 200	–	15	50	14	50	IC50 [4, 11]: > 200 µM
–	CC(C)(C)c1ccc(OC(=O)C2CCC(CNC(=N)N)CC2)cc1 (centres unmarked) [PH04]	50	26	45	45	90	38	3.4	15	2.9	10	duration of R1 period [10]: 35 min; time at which DNA synthetic activity doubled [10]: 65 min; time of initiation of DNA synthesis [10]: 30 min
–	N=C(N)NCC1CCC(C(=O)Oc2ccc(Cl)cc2Cl)CC1 (centres unmarked) [PH05]	–	–	92	–	–	62	–	–	–	–	–
–	N=C(N)NCC1CCC(C(=O)Oc2c(Cl)cc(Cl)cc2Cl)CC1 (centres unmarked) [PH06]	–	–	44	–	–	35	–	–	–	–	–

SMILES	MIC Range [1] [µg/mL]	B. subtilis IC100 [2] [µM]	IC50 [2] [µM]	IC50 [3] [µM]	E. coli IC91 [3]	E. coli IC100 [3] [µM]	IC50 [4] [µM]	IC20 [5] [µM]	S. aureus IC100 [5] [µM]	S. epidermidis IC91 [6]	S. epidermidis IC100 [6] [µM]	also measured
Cc1ccc(COC(=O)c2ccc(-c3ccc(OC(=O)c4ccc(CNC(=N)N)cc4)cc3)cc2)cc1 [NE-2001, 4-(4-methylbenzyl)-4′-[guanidinomethylbenzoyloxy] biphenyl-4-carboxylate]	0.10 to 0.48	–	–	–	–	–	–	–	–	–	–	LD50 ([7]; mouse, in vivo, 2000 mg/kg, oral, single dose, male mice, 6 weeks): > 2000 mg/kg; animal deaths ([7]; mouse, in vivo, po, 2000 mg/kg): no animal deaths occurred; body weight ([7]; mouse, in vivo, po, 2000 mg/kg): all animals gained weight; general toxicity ([7]; oral 2000 mg/kg, male mice): observed in neither cases; time at which no visible organism was detected [8]: 3 h; Frequency of natural resistant mutation ([9]; selected concentration of NE-2001 0.30 μg/ml): <3.4 × 10^−8; Frequency of natural resistant mutation ([9]; selected concentration of NE-2001 0.60 μg/ml): <3.4 × 10^−8; Frequency of natural resistant mutation ([9]; selected concentration of NE-2001 1.20 μg/ml): <3.4 × 10^−8
